Measurements published in patent publication US11672842B2, “Gonadotropin-releasing hormones for use as adjuvant immunotherapeutics” (ISR IMMUNE SYSTEM REGULATION HOLDING AB (PUBL), priority 2017, dated 2023).
[ ]: non-standard residue; d: D form. pGlu = O=C1CC[C@@H](C(=O)O)N1

Tests used:
[1] = Open-label phase IIa clinical study: safety and tolerability; format: in vivo, human
Text: The study outline is depicted in FIG. 3.

[2] = test system: CD4+ and CD8+ T cells (PBMCs from a healthy donor); assay: MHC class I expression after stimulation of T cells with GnRH II (FIG. 1); format: cell-based, human; settings: GnRH II and IL-2 for 72 hours, flow cytometry
Protocol: FIG. 1: Expression of MHC class I after stimulation of T cells with increasing concentrations of GnRH II. PBMCs from a healthy donor was stimulated with GnRH II and IL-2 for 72 hours. Data points represent mean fluorescent intensity of MCH class I expression on CD4^+ T cells (blue triangles) or CD8^+ T cells (black squares) measured with flow cytometry.

[3] = test system: CD4+ T-lymphocytes; settings: BB rats exhibiting an AIDS-like lymphocyte profile; cited from earlier work

**Q.** What does the source list for CCNC(=O)[C@@H]1CCCN1C(=O)[C@H](CCCNC(=N)N)NC(=O)[C@H](CC(C)C)NC(=O)[C@@H](COC(C)(C)C)NC(=O)[C@H](Cc1ccc(O)cc1)NC(=O)[C@H](CO)NC(=O)[C@H](Cc1c[nH]c2ccccc12)NC(=O)[C@H](Cc1cnc[nH]1)NC(=O)[C@@H]1CCC(=O)N1 [buserelin acetate]?
**A.** Any AE affecting impotence, % of patients ([1]; Safety (n = 26)): (23.1%); Any AE affecting libido, % of patients ([1]; Safety (n = 26)): (30.8%); Any AE leading to discontinuation, % of patients ([1]; Safety (n = 26)): (3.8%); Any AE, % of patients ([1]; Safety (n = 26)): (100.0%); Any SAE, % of patients ([1]; Safety (n = 26)): (0.0%); Any treatment-related AE, % of patients ([1]; Safety (n = 26)): (65.4%); Any treatment-related SAE, % of patients ([1]; Safety (n = 26)): (0.0%); Death, % of patients ([1]; Safety (n = 26)): 0.0%; grading of adverse events ([1]; in words): All adverse events except one was graded as mild; overall safety and tolerability of the treatment ([1]; in words): safe and well-tolerated; serious adverse events (SAEs) during the study ([1]; in words): no serious adverse events

**Q.** Which “MHC class I expression on T cells” value [2] does the source give for “pyroGlu-His-Trp-Ser-His-Gly-Trp-Tyr-Pro-Gly-NH2 ([pGlu]HWSHGWYPG-NH2; SMILES NC(=O)CNC(=O)[C@@H]1CCCN1C(=O)[C@H](Cc1ccc(O)cc1)NC(=O)[C@H](Cc1c[nH]c2ccccc12)NC(=O)CNC(=O)[C@H](Cc1c[nH]cn1)NC(=O)[C@H](CO)NC(=O)[C@H](Cc1c[nH]c2ccccc12)NC(=O)[C@H](Cc1c[nH]cn1)NC(=O)[C@@H]1CCC(=O)N1) [GnRH II, second, non-hypothalamic form of GnRH]” here?
**A.** stimulates MHC class I expression

**Q.** For “pyroGlu-His-Trp-Ser-Tyr-Gly-Leu-Arg-Pro-Gly-NH2 (EHWSYGLRPG; N-terminal pyroglutamate, C-terminal amide; printed: Glu-His-Trp-Ser-Tyr-Gly-Leu-Arg-Pro-Gly-) [GnRH I, decapeptide hormone]”, which “CD4+ T-lymphocyte numbers” value [3] is on record?
**A.** increased
